Source: publication PMC11285368, “Chasing Red Herrings: Palladium Metal Salt Impurities Feigning KRAS Activity in Biochemical Assays” (Journal of Medicinal Chemistry, 2024)
Read-outs that look alike come from different tables or passages of the source.

What was measured:
biotinylated GST = biotinylated GST (Schistosoma japonicum, UniProt P08515); experiment: Control assay (AlphaScreen Shortcut); assay type: biochemical
Experimental: This assay was developed to identify compounds that interfere with the assay format using AlphaLISA Glutathione Acceptor and AlphaScreen Streptavidin Donor beads. The assay was performed as described above using biotinylated GST as bridging reagent instead of KRAS^G12D and CRAF mix.

KRAS^G12D(GTP)::CRAF = molecular target: T1, KRAS^G12D(GTP)::CRAF (Homo sapiens, UniProt P01116, G12D); experiment: KRAS^G12D(GTP)::CRAF AlphaScreen; assay type: biochemical
T1 construct: KRAS^G12D 1–169, N-terminal 6His-tag, C-terminal avi-tag (Xtal BioStructures, Inc.); 6His (N); purchased Xtal BioStructures, Inc. (KRAS); Viva Biotech Ltd. (CRAF)
Experimental: The proteins have been used at these given final assay concentrations:
Test compounds dissolved in DMSO were dispensed onto assay plates (Proxiplate 384 PLUS, white, PerkinElmer; 6008289) using an Access Labcyte Workstation with the Labcyte Echo 555. For the chosen highest assay concentration of 100 μM, 150 nl of compound solution were transferred from a 10 mM DMSO compound stock solution. A series of 11 5-fold dilutions per compound was transferred to the assay plate, and compound dilutions were tested in duplicates. DMSO was added as backfill to a total volume of 150 nl. The assay was run on a fully automated robotic system in a darkened room below 100 Lux. […] After 60 min incubation time 5 μL of AlphaScreen bead mix in assay buffer were added into columns 1–23. Bead mix consisted of AlphaLISA Glutathione Acceptor Beads (PerkinElmer, cat. no. AL109) and Alpha-Screen Streptavidin Donor Beads (perkinElmer cat. no. 6760002) in assay buffer at a final assay concentration of 10 μg/mL each. Plates were kept at room temperature in a darkened incubator. After an additional 60 min incubation time the signal was measured on a PerkinElmer Envision HTS Multilabel Reader using the AlphaScreen specs from PerkinElmer.
IC50 values were calculated and analyzed with Boehringer Ingelheim’s MEGALAB IC50 application using a 4 parametric logistic model.

KRAS^G12D(GCP) = KRAS^G12D(GCP) (Homo sapiens, UniProt P01116, G12D); experiment: KRAS STD-NMR; assay type: binding; settings: Batch 1; 10 μM KRAS^G12D(GCP), 1000 μM ligand; approximated visually
Experimental: Experiments were recorded with a saturation time Tsat of 2 s and a total recycle delay of 3.6 s with the standard Bruker pulse program stddiffgp19.2. The shaped pulse train was made of G4 pulses with a length of 50 ms at a power of 31 μW. Here on resonance saturation was applied at 100 Hz and off resonance at 20000 Hz. No spin locking was applied to reduce the protein background. Here, 256 scans were applied with a time domain of 32 000 and the watergate delay was set to 90 μs to reduce remaining HDO signal intensity. 10 μM KRAS^G12D(GCP) and 1000 μM ligand was added for the STD NMR experiments and the percent enhancements approximated visually since no additional analysis was performed.

KRAS “on” = KRAS “on” (Homo sapiens, UniProt P01116); experiment: NMR-based fragment screen, KD (NMR); assay type: binding
[1] = Control assay IC50, Batch 2 (resynthesized)
[2] = Batch 1, read-out: KRAS^G12D(GTP)::CRAF AlphaScreen IC50
[3] = Batch 2 (resynthesized), read-out: KRAS^G12D(GTP)::CRAF AlphaScreen IC50
[4] = confirmation screen, read-out: IC50, KRAS^G12D(GTP)::CRAF high-throughput AlphaScreen

Chain of biotinylated GST (P08515 whole entry): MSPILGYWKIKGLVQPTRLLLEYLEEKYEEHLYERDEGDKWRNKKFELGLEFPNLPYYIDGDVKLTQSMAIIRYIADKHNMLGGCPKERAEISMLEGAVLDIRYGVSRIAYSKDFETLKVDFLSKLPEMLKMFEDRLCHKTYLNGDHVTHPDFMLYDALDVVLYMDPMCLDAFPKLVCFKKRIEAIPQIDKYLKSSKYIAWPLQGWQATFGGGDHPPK

Row | Compound | IC50 (biotinylated GST; Control assay IC50, Batch 1) [µM] | IC50 (biotinylated GST; [1]) [µM] | IC50 (biotinylated GST; Control assay IC50, Batch 3 (NP repurified)) [µM] | IC50 (KRAS^G12D(GTP)::CRAF; [2]) [µM] | IC50 (KRAS^G12D(GTP)::CRAF; [3]) [µM] | IC50 (KRAS^G12D(GTP)::CRAF; Batch 3 (NP repurified), read-out: KRAS^G12D(GTP)::CRAF AlphaScreen IC50) [µM] | IC50 (KRAS^G12D(GTP)::CRAF; [4]) [µM] | KRAS STD-NMR percent enhancement (KRAS^G12D(GCP)) [%] | Kd (KRAS “on”) [µM]
1 | O=C1NCCc2c1[nH]c1c(-c3ccoc3)cccc21 [Cmpd 3, 8-(Furan-3-yl)-2H,3H,4H,9H-pyrido[3,4-b]indol-1-one] | 34 ± 2.6 | 69.7 ± 6.7 | > 100 | 11 ± 1.5 | 51.5 ± 3.5 | 78.3 ± 2.9 | 8.1 | 11 | 
2 | O=C1NCCc2c1[nH]c1c(-c3ccncc3)cccc21 [Cmpd 4, 8-(Pyridin-4-yl)-2H,3H,4H,9H-pyrido[3,4-b]indol-1-one] | > 100 | > 100 |  | 8.6 ± 0.8 | 77.3 ± 55.7 |  | 6.3 | 7 | 
3 | c1ccc2c(Cc3nc4ccncc4[nH]3)c[nH]c2c1 [FBS Hit 1] | > 100 |  |  | > 100 |  |  |  |  | 1200
4 | Clc1ccc2[nH]c3c(c2c1)CNCC3 [FBS Hit 2] | > 100 |  |  | > 100 |  |  |  |  | > 2000
